The values below come from PubChem BioAssay AID1996.

What is called solubility (kinetic) is the concentration staying in solution when a stock, usually in DMSO, is diluted into the medium.

In brackets after ≈: the same amount, converted by molar mass. Bounds are passed on as bounds.

For this data set the following is noted: buffer; pH 7.4; 200.0 µM.
Consider `O=C1c2ccccc2CN1Cc1ccccc1`, for which the kinetic solubility was > 33.5 µg/mL.
With `CC(Sc1ncccn1)C(=O)NC1CCCC1` (configuration not stated) the figure was > 37.7 µg/mL.
The compound `COC(=O)c1c(C)nc2nonc2c1N` returned a solubility (kinetic) of 30 µg/mL (≈ 144 µM).
Regarding `Cc1ccc(-c2c(C(=O)O)c(C(=O)O)c3n2CSC3)cc1`, the solubility (kinetic) was > 45.5 µg/mL.
The same measure for `Cc1ccc(C(C)C)c(OCCn2ccnc2C)c1.O=C(O)C(=O)O`: 46.7 µg/mL.
The same measure for `Cc1ccc(S(=O)(=O)NC(=O)Nc2ccc(F)c(F)c2)cc1`: 44.1 µg/mL (≈ 135 µM).
In turn, `COCc1cc(C)nc(SCc2ccc([N+](=O)[O-])cc2)c1C#N` had a kinetic solubility of 5.2 µg/mL (≈ 15.8 µM).
With `CCc1nc2cc(Cl)c(Cl)cc2nc1CC` the figure was < 0.3 µg/mL; with `CCOC(=O)c1ccc(NC(=S)N2CCCC2)cc1`, 39.6 µg/mL (≈ 142 µM).
The same measure for `CCc1nc(Nc2ccccc2OC)c2oc3ccccc3c2n1.Cl`: < 0.3 µg/mL.
With `O=C(COC(=O)C1C2CC3OC(=O)C1C3C2)Nc1ccccc1` (configuration not stated) the figure was > 47.3 µg/mL; with `O=c1oc2c(-c3ccc([N+](=O)[O-])cc3)cc(O)cc2s1`, < 0.6 µg/mL; with `Cn1c(=O)[nH]c(=O)c2cc(C(=O)c3cc(F)ccc3O)cnc21`, 8 µg/mL (≈ 25.4 µM).
`OCC1CCCCN1C(=S)NCc1ccco1` (configuration not stated) had a kinetic solubility of 32.1 µg/mL (≈ 126 µM).
The same measure for `CC1CCCN(c2ccc(C(=O)Nc3cccnc3)cc2[N+](=O)[O-])C1` (configuration not stated): 15.8 µg/mL (≈ 46.4 µM); for `COc1ccc(C(=O)N2CCC3(CC2)OCCO3)cc1`: > 41.6 µg/mL; for `O=C(Cc1ccccc1[N+](=O)[O-])OCC(=O)c1ccccc1Br`: 39.1 µg/mL (≈ 103 µM).
Turning to `Cc1cc(C)cc(NC(=O)c2cccc(N3C(=O)C4C5C=CC(C5)C4C3=O)c2)c1` (configuration not stated), the solubility (kinetic) was < 0.4 µg/mL.
With `CN1CCN(c2ccc(CNC(=O)c3ccc4c(c3)OCCO4)cc2)CC1` the figure was 49.7 µg/mL (≈ 135 µM); with `Cc1nc(CSc2ccc(Cl)cc2)cs1`, 6.9 µg/mL (≈ 27 µM).
As for `O=C(Nc1ccccc1)/C(=C\c1ccccc1)NC(=O)c1ccco1`, the solubility (kinetic) is 0.7 µg/mL (≈ 2.11 µM).
With `CSc1nc(-c2ccc(Cl)cc2)nc(N)c1C#N` the figure was < 0.1 µg/mL; with `N#CCCN(C(=O)COC(=O)c1ccc2c(c1)OCCO2)c1ccccc1`, 52 µg/mL (≈ 142 µM).
The same measure for `CN(C)CCNC(C(=O)Nc1cc(Cl)cc(Cl)c1)c1ccccc1` (configuration not stated): > 54.9 µg/mL; for `O=C(Nc1cc(S(=O)(=O)Nc2ccccc2F)ccc1Cl)c1ccc(F)cc1F`: 2.5 µg/mL (≈ 5.67 µM).
As for `COc1cc(CC2C(=O)Nc3ccccc32)cc(C)c1O` (configuration not stated), the kinetic solubility was > 42.5 µg/mL.
With `CCN1CCN(c2nc(NCCO)c3ccccc3n2)CC1.Cl` the figure was 48 µg/mL.
The same measure for `Cc1ccccc1NC(=S)N(Cc1ccccc1)Cc1cccnc1`: 43.9 µg/mL (≈ 126 µM); for `Cc1cc(C)c(OCCOCCN2CCCC2)c(C)c1`: 30.2 µg/mL (≈ 109 µM); for `COc1cccc(CN2CCc3[nH]c(=S)[nH]c(=O)c3C2)c1`: > 45.5 µg/mL.
With `COCCN1CN=C(NS(=O)(=O)c2ccc(C)cc2)NC1`, the kinetic solubility is > 46.9 µg/mL.
With `CC(C)CN(C(=O)C1CC1)C1CCS(=O)(=O)C1` (configuration not stated) the figure was > 38.9 µg/mL; with `CC(C)N1CCN(Cc2ccc3nsnc3c2)CC1CCO` (configuration not stated), > 48.1 µg/mL.
With `Cc1ccc(C(=O)Nc2cc(C)nn2CCC#N)cc1` the figure was > 40.2 µg/mL; with `O=C(Cn1cnc2ccccc21)c1ccc(Br)cc1`, 40 µg/mL (≈ 127 µM).
With `O=C(NCCN1CCOCC1)Nc1cccc(Cl)c1` the figure was 40.1 µg/mL (≈ 141 µM); with `CS(=O)(=O)c1ccccc1C(=O)Nc1ccc2sccc2c1`, 33.8 µg/mL (≈ 102 µM).
As for `O=C(NCc1ccco1)c1cc(S(=O)(=O)NC2CC2)ccc1Br`, the solubility (kinetic) is > 59.9 µg/mL.
With `CC(Sc1nccn1C)C(=O)c1ccc(Br)cc1` (configuration not stated) the figure was 42.9 µg/mL (≈ 132 µM).
With `CCn1c(C)nc2cc(C#N)ccc21` the figure was > 27.8 µg/mL.
The same measure for `COc1ccc(C(C)=O)cc1CN1C(=O)NC2(CCCC2)C1=O`: 44.9 µg/mL (≈ 142 µM); for `Fc1ccc(-c2nc(-c3cnccn3)no2)c(Cl)c1`: 3.5 µg/mL (≈ 12.7 µM); for `CN1C(=O)/C(=C/c2coc3ccc(O)cc3c2=O)SC1=S`: < 0.7 µg/mL.
For the compound `O=C(c1ccc(Cl)nc1)N1CCN(C/C=C/c2ccccc2)CC1`, the solubility (kinetic) was > 51.3 µg/mL.
The same measure for `CCN(CC)Cc1c(O)ccc2c(=O)c(Oc3ccccc3OC)c(C)oc12`: > 57.5 µg/mL; for `O=C(Nc1cccnc1)C1CC(=O)N(c2ccc(F)cc2)C1` (configuration not stated): > 44.9 µg/mL.
Compound `O=C(N1CCCC1)C12CC3CCC(CC(C3)C1)C2` returned a solubility (kinetic) of 28.4 µg/mL (≈ 115 µM).
The same measure for `O=C(Nc1ccccc1N1CCCCC1)c1cccc([N+](=O)[O-])c1`: 0.7 µg/mL (≈ 2.15 µM); for `O=C(Nc1cccc(Cl)c1)C1CCN(C(=O)c2cccs2)CC1`: 48.4 µg/mL (≈ 139 µM); for `O=C(COC(=O)c1c[nH]c2ccccc12)Nc1ccccc1`: 1.9 µg/mL (≈ 6.46 µM).
With `NC(=O)c1ccc[n+]([C@H]2O[C@@H](COP(=O)([O-])OP(=O)(O)OC[C@H]3O[C@@H](n4cnc5c(N)ncnc54)[C@H](O)[C@@H]3O)[C@H](O)[C@@H]2O)c1`, the kinetic solubility is > 99.5 µg/mL.
The same measure for `COc1ccc(CNC(=S)Nc2ccccc2Cl)cc1`: 12 µg/mL (≈ 39.1 µM).
